Results on eight compounds are retold here after ChEMBL document CHEMBL5104132, “Identification of sugar-containing natural products that interact with i-motif DNA” (Bioorg Med Chem Lett, 2022).

Holding throughout (assay type): nucleic-acid assay
Test [1] deals with i-motif DNA. Nature of the test: Displacement of thiazole orange from human ILPR i-motif DNA at 100 equiv. at pH 5.5 by fluorescent intercalator displacement assay.
In test [2] the test system is i-motif DNA. The test is described as follows: Displacement of thiazole orange from human ILPR i-motif DNA at 100 equiv. at pH 7.4 by fluorescent intercalator displacement assay.
Test [3] relates to Quadruplex DNA. Nature of the test: Displacement of thiazole orange from human telomeric IKF1 G4 quadruplex DNA at 10 equiv. at pH 7.4 by fluorescent intercalator displacement assay.
In test [4] the test system is dsDNA. Nature of the test: Displacement of thiazole orange from human 1BNA double stranded DNA at 100 equiv. at pH 7.4 by fluorescent intercalator displacement assay.
For test [5], the system named is i-motif DNA. The test is described as follows: Binding affinity to human telomeric 1ELN i-motif DNA assessed as change in melting temperature at 20 uM at pH 7.4 by FRET assay.
The test system of test [6] is dsDNA. The test is described as follows: Displacement of thiazole orange from human 1BNA double stranded DNA at 10 equiv. at pH 7.4 by fluorescent intercalator displacement assay.
For test [7], the system named is i-motif DNA. Nature of the test: Binding affinity to human ILPR i-motif DNA assessed as change in melting temperature at 20 uM at pH 5.5 by FRET assay.
Test [8] has as its system i-motif DNA. Nature of the test: Displacement of thiazole orange from human telomeric 1ELN i-motif DNA at 10 equiv. at pH 5.5 by fluorescent intercalator displacement assay.
The test system of test [9] is i-motif DNA. The test is described as follows: Displacement of thiazole orange from human ILPR i-motif DNA at 10 equiv. at pH 7.4 by fluorescent intercalator displacement assay.
In test [10] the test system is i-motif DNA. Nature of the test: Displacement of thiazole orange from human ILPR i-motif DNA at 10 equiv. at pH 5.5 by fluorescent intercalator displacement assay.
The test system of test [11] is dsDNA. The test is described as follows: Binding affinity to human 1BNA double stranded DNA assessed as change in melting temperature at 20 uM at pH 7.4 by FRET assay.
Test [12] deals with Quadruplex DNA. Nature of the test: Binding affinity to human telomeric IKF1 G4 quadruplex DNA assessed as change in melting temperature at 20 uM at pH 7.4 by FRET assay.
For test [13], the system named is i-motif DNA. The test is described as follows: Binding affinity to human telomeric 1ELN i-motif DNA assessed as change in melting temperature at 20 uM at pH 5.5 by FRET assay.
The subject of test [14] is i-motif DNA. The test is described as follows: Binding affinity to human ILPR i-motif DNA assessed as change in melting temperature at 20 uM at pH 7.4 by FRET assay.
Test [15] has as its system Quadruplex DNA. Nature of the test: Displacement of thiazole orange from human telomeric IKF1 G4 quadruplex DNA at 100 equiv. at pH 7.4 by fluorescent intercalator displacement assay.
Test [16] relates to Quadruplex DNA. Nature of the test: Binding affinity to human ILPR G4 quadruplex DNA assessed as change in melting temperature at 20 uM at pH 7.4 by FRET assay.
Test [17] has as its system Quadruplex DNA. The test is described as follows: Displacement of thiazole orange from human ILPR G4 quadruplex DNA at 100 equiv. at pH 7.4 by fluorescent intercalator displacement assay.
For test [18], the system named is Quadruplex DNA. The test is described as follows: Displacement of thiazole orange from human ILPR G4 quadruplex DNA at 10 equiv. at pH 7.4 by fluorescent intercalator displacement assay.
Test [19] has as its system i-motif DNA. Nature of the test: Displacement of thiazole orange from human telomeric 1ELN i-motif DNA at 10 equiv. at pH 7.4 by fluorescent intercalator displacement assay.
For test [20], the system named is i-motif DNA. Nature of the test: Displacement of thiazole orange from human telomeric 1ELN i-motif DNA at 100 equiv. at pH 7.4 by fluorescent intercalator displacement assay.
Test [21] deals with i-motif DNA. The test is described as follows: Displacement of thiazole orange from human telomeric 1ELN i-motif DNA at 100 equiv. at pH 5.5 by fluorescent intercalator displacement assay.
Test [22] has as its target i-motif DNA. The test is described as follows: Binding affinity to human telomeric i-motif DNA by SPR analysis. (SPR reads the build-up and loss of mass on a sensor chip optically.)
Test [23] concerns the target i-motif DNA. Nature of the test: Binding affinity to human c-Myc promoter i-motif DNA by SPR analysis.
Test [24] has as its target dsDNA. The test is described as follows: Binding affinity to human double stranded DNA by SPR analysis.

For `O=C(O)C1=CO[C@@H](O[C@@H]2O[C@H](CO)[C@@H](O)[C@H](O)[C@H]2O)[C@@H]2C(CO)=CC[C@H]12`, the Activity in the test on i-motif DNA [1] is 25.3%; in the test with i-motif DNA [2], 22%; with Quadruplex DNA [3], 23%; in the test on dsDNA [4], 9.6%; in the test on dsDNA [6], 6.4%; in the test with i-motif DNA [8], -10.2%. Moreover, the Activity with i-motif DNA [9] was 12.3%; with i-motif DNA [10], -3.5%; in the test on Quadruplex DNA [15], 25.2%; in the test on Quadruplex DNA [17] it was 1.4%; in the test on Quadruplex DNA [18] it was 4.1%; in the test with i-motif DNA [19] it was 2.6%. Also, the Activity with i-motif DNA [20] is -37.8%; with i-motif DNA [21], 22.9%. Besides, the ΔTm in the test with i-motif DNA [5] is -2.5 °C; with i-motif DNA [7] it was -0.3 °C; with dsDNA [11] it was -4.8 °C; in the test with Quadruplex DNA [12] it was -4.7 °C; in the test on i-motif DNA [13], -0.5 °C; in the test with i-motif DNA [14], -2.2 °C. Moreover, the ΔTm in the test on Quadruplex DNA [16] was -3.6 °C.
For the compound `O=c1ccc2cc(O[C@@H]3O[C@H](CO)[C@@H](O)[C@H](O)[C@H]3O)c(O)cc2o1`, the ΔTm with i-motif DNA [5] was -6.4 °C; in the test with i-motif DNA [7], 0 °C; with dsDNA [11], -2.7 °C; in the test with Quadruplex DNA [12], -7.6 °C; with i-motif DNA [13], -0.4 °C; in the test on i-motif DNA [14], -2.6 °C. Further, the ΔTm in the test with Quadruplex DNA [16] was -2.4 °C.
`COC(=O)C1=CO[C@@H](O[C@@H]2O[C@H](CO)[C@@H](O)[C@H](O)[C@H]2O)[C@@H]2C(CO)=CC[C@H]12`: the Activity in the test on i-motif DNA [1] was 27.9%; in the test on i-motif DNA [2], 31.8%; with Quadruplex DNA [3] it was 23.1%; in the test with dsDNA [4], 11.2%; in the test with dsDNA [6], 8.5%; in the test with i-motif DNA [8], -9.5%. Besides, the Activity in the test with i-motif DNA [9] is 21.2%; in the test on i-motif DNA [10] it was 7.2%; with Quadruplex DNA [15] it was 25.7%; in the test on Quadruplex DNA [17] it was 1.8%; with Quadruplex DNA [18] it was -6.7%; with i-motif DNA [19], -32%. The Activity with i-motif DNA [20] is -84.1%; in the test on i-motif DNA [21], 32.3%. The ΔTm with i-motif DNA [5] was -1.8 °C; with i-motif DNA [7], -0.1 °C; in the test on dsDNA [11] it was -3.5 °C; with Quadruplex DNA [12] it was -6.1 °C; in the test with i-motif DNA [13], -0.5 °C; in the test on i-motif DNA [14], -1.8 °C. The ΔTm in the test on Quadruplex DNA [16] is -2.9 °C.
For the compound `NC[C@H]1O[C@H](O[C@H]2[C@H](O)[C@@H](O[C@H]3O[C@H](CO)[C@@H](O)[C@H](N)[C@H]3O)[C@H](N)C[C@@H]2N)[C@H](N)C[C@@H]1O` [TOBRAMYCIN], the Kd on i-motif DNA [22] amounted to 17 µM; at i-motif DNA [23], 13 µM; on dsDNA [24], 18 µM.
Regarding `O=C(O)[C@H]1O[C@@H](Oc2cc3oc(-c4ccccc4)cc(=O)c3c(O)c2O)[C@H](O)[C@@H](O)[C@@H]1O`, the Activity with i-motif DNA [1] came out at 35.3%; with i-motif DNA [2], 38.5%; in the test with Quadruplex DNA [3], 24%; in the test on dsDNA [4], 25.3%; in the test with dsDNA [6] it was 8.2%; with i-motif DNA [8] it was 12.2%. Moreover, the Activity in the test with i-motif DNA [9] was 23.9%; in the test on i-motif DNA [10], 9.5%; with Quadruplex DNA [15] it was 46.3%; in the test with Quadruplex DNA [17], 17.7%; in the test on Quadruplex DNA [18], 4.9%; in the test on i-motif DNA [19], -3.8%. In addition, the Activity was -91.2% in the test with i-motif DNA [20] and 36.5% with i-motif DNA [21]. In addition, the ΔTm was -3.9 °C with i-motif DNA [5]; -0.3 °C with i-motif DNA [7]; -2.5 °C in the test with dsDNA [11]; -1.8 °C with Quadruplex DNA [12]; -0.4 °C in the test on i-motif DNA [13]; -2.6 °C in the test on i-motif DNA [14]. In addition, in the test on Quadruplex DNA [16], the ΔTm is -3.8 °C.
`O=c1c(-c2ccc(O)cc2)coc2cc(O[C@@H]3O[C@H](CO)[C@@H](O)[C@H](O)[C@H]3O)ccc12`: the Activity with i-motif DNA [1] was 22.6%; in the test with i-motif DNA [2], 28.9%; in the test with Quadruplex DNA [3], 20.9%; with dsDNA [4] it was 10.9%; in the test with dsDNA [6], 7%; in the test with i-motif DNA [8], -4.2%. The Activity in the test with i-motif DNA [9] was 20%; in the test with i-motif DNA [10], -2.5%; in the test with Quadruplex DNA [15], 29%; with Quadruplex DNA [17], 2.4%; in the test with Quadruplex DNA [18], 2.6%; in the test with i-motif DNA [19], 14.9%. Also, the figures for the Activity in the test on i-motif DNA [20] and in the test with i-motif DNA [21] were -154% and 20.3%, respectively. Besides, the ΔTm in the test on i-motif DNA [5] was 0 °C; in the test on i-motif DNA [7], -0.1 °C; with dsDNA [11], -2.3 °C; in the test on Quadruplex DNA [12], -2.4 °C; in the test on i-motif DNA [13] it was -0.3 °C; in the test with i-motif DNA [14], -2.4 °C. In addition, the ΔTm with Quadruplex DNA [16] is -1.8 °C.
As for `OC[C@H]1O[C@@H](O[C@@H]2[C@@H](CO)O[C@](O)(CO)[C@H]2O)[C@H](O)[C@@H](O)[C@H]1O`, the Activity was 23.1% with i-motif DNA [1]; 34.7% in the test on i-motif DNA [2]; 21.4% with Quadruplex DNA [3]; 9% in the test on dsDNA [4]; 4.3% in the test with dsDNA [6]; -28.4% with i-motif DNA [8]. The Activity in the test on i-motif DNA [9] is 26.7%; with i-motif DNA [10] it was -5%; in the test with Quadruplex DNA [15], 26.1%; in the test with Quadruplex DNA [17] it was 0.4%; with Quadruplex DNA [18] it was 0.9%; with i-motif DNA [19], -54%. In addition, the Activity in the test with i-motif DNA [20] is -68%; with i-motif DNA [21] it was 20.2%. In addition, the ΔTm in the test on i-motif DNA [5] is -3.7 °C; with i-motif DNA [7], -0.3 °C; with dsDNA [11] it was -2.7 °C; in the test with Quadruplex DNA [12] it was -4 °C; with i-motif DNA [13] it was -0.4 °C; in the test on i-motif DNA [14], -2.7 °C. Moreover, the ΔTm in the test with Quadruplex DNA [16] was -4.6 °C.
Take `O=c1c(-c2ccc(O)cc2)coc2cc(O[C@@H]3O[C@H](CO)[C@@H](O)[C@H](O)[C@H]3O)cc(O)c12`: the Activity was determined as 23.5% in the test with i-motif DNA [1]; 31.8% with i-motif DNA [2]; 20.8% in the test with Quadruplex DNA [3]; 14.5% in the test on dsDNA [4]; 6.2% in the test with dsDNA [6]; 0.6% in the test with i-motif DNA [8]. The Activity in the test on i-motif DNA [9] was found to be 24.2%; in the test with i-motif DNA [10], 5.3%; in the test with Quadruplex DNA [15], 28.7%; with Quadruplex DNA [17] it was 6.4%; with Quadruplex DNA [18], 1.6%; in the test with i-motif DNA [19], 16.2%. Further, the Activity was -288% with i-motif DNA [20] and 19.3% in the test on i-motif DNA [21]. For the same compound, the ΔTm in the test with i-motif DNA [5] was -5.4 °C; in the test with i-motif DNA [7], -0.4 °C; in the test on dsDNA [11] it was -3 °C; in the test on Quadruplex DNA [12] it was -6.6 °C; in the test with i-motif DNA [13], -0.8 °C; with i-motif DNA [14] it was -2.4 °C. Further, the thermal shift (ΔTm) in the test on Quadruplex DNA [16] was -4.7 °C.

As a reminder, the ΔTm is the shift of the melting midpoint relative to a reference. In general, Kd refers to the free concentration of one partner at which half of the binding sites on the other are occupied at equilibrium, for simple one-to-one binding. A low value points to higher affinity.
